Results: paper PMC3251254, “Mini-PEG spacering of VAP-1-targeting ^68Ga-DOTAVAP-P1 peptide improves PET imaging of inflammation” (EJNMMI Research, 2011)
Read-outs that look alike come from different tables or passages of the source. Residues, ends and D or L forms follow the SMILES beside them. *: point of attachment. DOTA = O=C(O)CN1CCN(CC(=O)O)CCN(CC(=O)*)CCN(CC(=O)O)CC1; AEEA = NCCOCCOCC(=O)O

Columns and labels:
[1] = in vivo, iv; for AUC / CL / blood-plasma ratio / metabolic half-life / plasma free fraction (fp): rat
Experimental: Blood samples (0.2 ml of each) were drawn at 5, 10, 15, 30, 45, 60 and 120 min after injection of ^68Ga-DOTA-peptides into heparinised tubes (Microvette 100; Sarstedt, Nümbrecht, Germany). Radioactivity of whole blood was measured with the gamma counter (Wizard, EG&G Wallac). Plasma was separated by centrifugation (2,200 × g for 5 min at 4°C), and plasma radioactivity was measured. The ratio of radioactivity in blood versus plasma was calculated. To determine plasma protein binding, proteins were precipitated with 10% sulphosalicylic acid, and the radioactivity in protein precipitate and supernatant was measured. The plasma supernatant was further analysed by radio-HPLC in order to evaluate the in vivo stability of the ^68Ga-labelled peptides.
In vivo stability data were used in order to generate metabolite-corrected plasma TACs for ^68Ga-DOTAVAP-P1 and ^68Ga-DOTAVAP-PEG-P1, which were further used for the calculation of pharmacokinetic parameters. The area under curve (AUC) of the plasma TAC from 0 to infinity was calculated using a non-compartmental analysis employing the trapezoidal rule. The clearance (CL) of the ^68Ga-labelled peptides after a single intravenous bolus dose was calculated by dividing the injected dose by the AUC. The plot of the natural logarithm of parent tracer concentration against time after bolus injection became linear in the end phase, as the tracer was eliminated according to the laws of first-order reaction kinetics. The elimination rate constant (kel) was calculated as the negative slope of the linear part of the plot. The plasma elimination half-life (t1/2) was calculated as t1/2 = ln(2)/kel. The metabolic half-lives of the ^68Ga-DOTA-peptides were calculated according to the results of radio-HPLC, i.e. the time point when 50% of the total radioactivity is still bound to the intact peptide.

[2] = type: in vitro ADME; settings: plasma
Experimental: The in vitro stability of the ^68Ga-labelled peptides was evaluated in human and rat plasma. Several samples were taken during the 4-h incubation period at 37°C. Proteins from plasma samples were precipitated with 10% sulphosalicylic acid (1:1 v/v), centrifuged at 3,900 × g for 3 min at 4°C, and filtered through 0.45-μm Minispike filter (Waters Corporation). The filtrate was analysed by radio-HPLC.

Structure (SMILES) | proportion of unchanged peptide in rat plasma at 60 min after injection [1] | proportion of unchanged peptide in rat plasma at 120 min after injection [1] | AUC [1] | CL [1] | blood-plasma ratio [1] | metabolic half-life [1] | plasma free fraction (fp) [1] | remaining at 4 h ([2]; human) | remaining at 4 h ([2]; rat)
NCCCC[C@H](NC(=O)CNC(=O)CNC(=O)CNC(=O)CNC(=O)CN1CCN(CC(=O)O)CCN(CC(=O)O)CCN(CC(=O)O)CC1)C(=O)NCC(=O)NCC(=O)NCC(=O)NCC(=O)O [^68Ga-DOTAVAP-P1, metal not drawn] ({DOTA}-GGGGKGGGG-OH) | 19 ± 4% | 4 ± 1% | 950 ± 170 min*kBq/ml | 0.017 ± 0.001 mL/min | 1.3 ± 0.1 | 0.4 h | 0.84 ± 0.04 | 88 ± 3% | 82 ± 11%
NCCCC[C@H](NC(=O)CNC(=O)CNC(=O)CNC(=O)CNC(=O)COCCOCCNC(=O)CN1CCN(CC(=O)O)CCN(CC(=O)O)CCN(CC(=O)O)CC1)C(=O)NCC(=O)NCC(=O)NCC(=O)NCC(=O)O [^68Ga-DOTAVAP-PEG-P1, metal not drawn] ({DOTA-AEEA}-GGGGKGGGG-OH) | 76 ± 18% | 49 ± 6% | 2,400 ± 68 min*kBq/ml | 0.008 ± 0.002 mL/min | 1.3 ± 0.1 | 2.08 h | 0.86 ± 0.02 | 89 ± 8% | 90 ± 6%
